ChEMBL document CHEMBL1201862, “PubChem BioAssay data set” (2004)
Active and inactive are the calls of the source.

Experiments:
[1] = target: T1, Coagulation factor XII (Homo sapiens, UniProt P00748); assay: activated coagulation factor XII inhibitor potency, concentration-effect curve, cell-free (AID 716); assay type: functional
T1 sequence (P00748 whole entry): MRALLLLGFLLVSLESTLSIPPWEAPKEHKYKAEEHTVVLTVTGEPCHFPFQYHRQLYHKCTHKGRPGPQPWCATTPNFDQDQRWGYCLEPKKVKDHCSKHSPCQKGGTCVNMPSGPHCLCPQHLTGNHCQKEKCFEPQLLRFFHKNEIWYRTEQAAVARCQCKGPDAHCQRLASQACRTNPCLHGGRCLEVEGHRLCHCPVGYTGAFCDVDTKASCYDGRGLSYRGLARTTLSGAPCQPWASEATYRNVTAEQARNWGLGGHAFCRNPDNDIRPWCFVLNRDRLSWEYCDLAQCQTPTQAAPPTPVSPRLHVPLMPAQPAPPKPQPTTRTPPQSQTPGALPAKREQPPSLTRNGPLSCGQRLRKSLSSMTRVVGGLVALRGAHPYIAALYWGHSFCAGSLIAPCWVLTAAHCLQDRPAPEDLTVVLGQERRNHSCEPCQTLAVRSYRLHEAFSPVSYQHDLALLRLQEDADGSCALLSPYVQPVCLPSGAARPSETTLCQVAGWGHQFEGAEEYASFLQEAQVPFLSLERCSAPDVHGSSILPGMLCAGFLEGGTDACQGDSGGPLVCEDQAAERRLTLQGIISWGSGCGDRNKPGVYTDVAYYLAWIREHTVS

[2] = Luminescence Cell-Based Dose Retest to Confirm Inhibitors of Cancer Stem Cells. [Related pubchem assays (depositor defined):AID2717, AID2721]; assay type: functional; settings: Homo sapiens
[3] = target: E3 ubiquitin-protein ligase Mdm2/Protein Mdm4 (Homo sapiens, UniProt O15151+Q00987); assay: disruption of Mdm2/MdmX protein binding – luminescence detection, dose response (AID 504593); assay type: functional
Sequence of E3 ubiquitin-protein ligase Mdm2/Protein Mdm4 (Q00987 whole entry): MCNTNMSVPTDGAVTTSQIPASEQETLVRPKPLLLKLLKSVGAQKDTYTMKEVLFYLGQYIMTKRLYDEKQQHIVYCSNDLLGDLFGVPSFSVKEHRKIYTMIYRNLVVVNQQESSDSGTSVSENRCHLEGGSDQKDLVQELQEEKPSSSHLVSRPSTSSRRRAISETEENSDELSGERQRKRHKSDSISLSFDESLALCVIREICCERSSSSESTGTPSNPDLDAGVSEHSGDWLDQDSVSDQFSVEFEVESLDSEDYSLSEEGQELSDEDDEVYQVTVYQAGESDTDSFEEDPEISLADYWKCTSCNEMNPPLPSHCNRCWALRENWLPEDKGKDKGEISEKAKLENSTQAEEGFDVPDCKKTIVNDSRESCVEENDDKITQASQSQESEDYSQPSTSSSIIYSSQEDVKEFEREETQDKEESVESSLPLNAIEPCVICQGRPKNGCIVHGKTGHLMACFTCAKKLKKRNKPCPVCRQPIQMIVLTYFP
Sequence of E3 ubiquitin-protein ligase Mdm2/Protein Mdm4 (O15151 whole entry): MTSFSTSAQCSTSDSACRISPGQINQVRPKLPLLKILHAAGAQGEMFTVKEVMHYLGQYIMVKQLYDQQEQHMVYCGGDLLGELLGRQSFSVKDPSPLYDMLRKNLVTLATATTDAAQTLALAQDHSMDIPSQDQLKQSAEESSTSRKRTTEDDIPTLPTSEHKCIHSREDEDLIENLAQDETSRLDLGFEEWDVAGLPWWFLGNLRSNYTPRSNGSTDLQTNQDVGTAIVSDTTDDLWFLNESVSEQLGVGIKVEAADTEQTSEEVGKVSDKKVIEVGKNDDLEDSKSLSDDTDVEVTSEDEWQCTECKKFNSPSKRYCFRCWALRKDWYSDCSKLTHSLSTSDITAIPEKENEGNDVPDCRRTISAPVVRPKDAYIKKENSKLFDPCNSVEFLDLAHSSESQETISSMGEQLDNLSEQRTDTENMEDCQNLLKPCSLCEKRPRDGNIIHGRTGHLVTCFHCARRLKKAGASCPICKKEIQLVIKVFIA

[4] = tested on: Vero; assay: cells; assay type: functional, cell-based; settings: Chlorocebus sabaeus
[5] = tested on: Vero; assay: cells; assay type: functional; settings: Chlorocebus sabaeus
[6] = tested on: HEK293; assay: inhibition of NOD1-driven NF-kB reporter – cell-based, luminescence, uHTS, primary screen (AID 1578); assay type: functional; settings: Homo sapiens
[7] = tested on: HEK293; assay: cells; assay type: functional, cell-based; settings: Homo sapiens
[8] = tested on: HEK293; assay: cells; assay type: functional, cell-based; settings: Homo sapiens; remark: listed apart in the source
[9] = target: Nucleotide-binding oligomerization domain-containing protein 2 (Homo sapiens, UniProt Q9HC29); assay: inhibition of NOD2-driven NF-kB reporter – cell-based, luminescence, uHTS, HEK293 (AID 1566); assay type: functional
Sequence of Nucleotide-binding oligomerization domain-containing protein 2 (Q9HC29 whole entry, the tested form may be a part): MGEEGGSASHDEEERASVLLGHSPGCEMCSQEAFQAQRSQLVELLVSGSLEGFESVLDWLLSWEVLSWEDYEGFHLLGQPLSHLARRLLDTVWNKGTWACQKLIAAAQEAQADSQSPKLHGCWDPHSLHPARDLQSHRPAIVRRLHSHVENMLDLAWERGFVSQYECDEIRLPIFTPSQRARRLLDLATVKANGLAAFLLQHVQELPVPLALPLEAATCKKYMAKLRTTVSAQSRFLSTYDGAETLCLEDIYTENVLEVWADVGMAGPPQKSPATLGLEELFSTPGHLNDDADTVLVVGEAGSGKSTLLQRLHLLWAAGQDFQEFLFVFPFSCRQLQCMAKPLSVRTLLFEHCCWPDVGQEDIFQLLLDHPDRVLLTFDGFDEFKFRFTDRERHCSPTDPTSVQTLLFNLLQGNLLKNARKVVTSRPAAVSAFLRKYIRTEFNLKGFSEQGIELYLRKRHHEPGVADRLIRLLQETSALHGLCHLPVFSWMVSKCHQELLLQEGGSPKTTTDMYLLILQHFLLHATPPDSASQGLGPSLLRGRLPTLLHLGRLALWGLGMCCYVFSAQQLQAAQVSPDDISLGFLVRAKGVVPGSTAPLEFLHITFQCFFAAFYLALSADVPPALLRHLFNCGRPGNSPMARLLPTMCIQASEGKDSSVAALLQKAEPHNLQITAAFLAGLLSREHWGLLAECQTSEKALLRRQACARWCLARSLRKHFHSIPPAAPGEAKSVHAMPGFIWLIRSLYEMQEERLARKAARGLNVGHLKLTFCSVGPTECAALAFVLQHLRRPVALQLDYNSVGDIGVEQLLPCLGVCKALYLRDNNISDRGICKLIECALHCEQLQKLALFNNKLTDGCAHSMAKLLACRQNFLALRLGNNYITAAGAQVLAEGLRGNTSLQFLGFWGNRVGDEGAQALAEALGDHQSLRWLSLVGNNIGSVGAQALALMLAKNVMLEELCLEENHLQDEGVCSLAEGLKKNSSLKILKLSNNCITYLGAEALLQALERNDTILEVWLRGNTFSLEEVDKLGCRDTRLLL

[10] = tested on: HEK293; assay: NOD2 signaling inhibitors in MDP-stimulated cells, cell-based, uHTS, luminescence (AID 2001); assay type: functional; settings: Homo sapiens
[11] = tested on: HEK293; assay: cells; assay type: functional, cell-based; settings: Homo sapiens; remark: listed apart in the source
[12] = target: Dual specificity tyrosine-phosphorylation-regulated kinase 1A (Rattus norvegicus, UniProt Q63470); assay type: biochemical, Homo sapiens
[13] = target: Voltage-dependent T-type calcium channel subunit alpha-1H (Homo sapiens, UniProt O95180); assay: human CACNA1H calcium influx blockade – cell-based, synthetic library set 1, calcium flux (AID 493022); assay type: functional
Sequence of Voltage-dependent T-type calcium channel subunit alpha-1H (O95180 whole entry): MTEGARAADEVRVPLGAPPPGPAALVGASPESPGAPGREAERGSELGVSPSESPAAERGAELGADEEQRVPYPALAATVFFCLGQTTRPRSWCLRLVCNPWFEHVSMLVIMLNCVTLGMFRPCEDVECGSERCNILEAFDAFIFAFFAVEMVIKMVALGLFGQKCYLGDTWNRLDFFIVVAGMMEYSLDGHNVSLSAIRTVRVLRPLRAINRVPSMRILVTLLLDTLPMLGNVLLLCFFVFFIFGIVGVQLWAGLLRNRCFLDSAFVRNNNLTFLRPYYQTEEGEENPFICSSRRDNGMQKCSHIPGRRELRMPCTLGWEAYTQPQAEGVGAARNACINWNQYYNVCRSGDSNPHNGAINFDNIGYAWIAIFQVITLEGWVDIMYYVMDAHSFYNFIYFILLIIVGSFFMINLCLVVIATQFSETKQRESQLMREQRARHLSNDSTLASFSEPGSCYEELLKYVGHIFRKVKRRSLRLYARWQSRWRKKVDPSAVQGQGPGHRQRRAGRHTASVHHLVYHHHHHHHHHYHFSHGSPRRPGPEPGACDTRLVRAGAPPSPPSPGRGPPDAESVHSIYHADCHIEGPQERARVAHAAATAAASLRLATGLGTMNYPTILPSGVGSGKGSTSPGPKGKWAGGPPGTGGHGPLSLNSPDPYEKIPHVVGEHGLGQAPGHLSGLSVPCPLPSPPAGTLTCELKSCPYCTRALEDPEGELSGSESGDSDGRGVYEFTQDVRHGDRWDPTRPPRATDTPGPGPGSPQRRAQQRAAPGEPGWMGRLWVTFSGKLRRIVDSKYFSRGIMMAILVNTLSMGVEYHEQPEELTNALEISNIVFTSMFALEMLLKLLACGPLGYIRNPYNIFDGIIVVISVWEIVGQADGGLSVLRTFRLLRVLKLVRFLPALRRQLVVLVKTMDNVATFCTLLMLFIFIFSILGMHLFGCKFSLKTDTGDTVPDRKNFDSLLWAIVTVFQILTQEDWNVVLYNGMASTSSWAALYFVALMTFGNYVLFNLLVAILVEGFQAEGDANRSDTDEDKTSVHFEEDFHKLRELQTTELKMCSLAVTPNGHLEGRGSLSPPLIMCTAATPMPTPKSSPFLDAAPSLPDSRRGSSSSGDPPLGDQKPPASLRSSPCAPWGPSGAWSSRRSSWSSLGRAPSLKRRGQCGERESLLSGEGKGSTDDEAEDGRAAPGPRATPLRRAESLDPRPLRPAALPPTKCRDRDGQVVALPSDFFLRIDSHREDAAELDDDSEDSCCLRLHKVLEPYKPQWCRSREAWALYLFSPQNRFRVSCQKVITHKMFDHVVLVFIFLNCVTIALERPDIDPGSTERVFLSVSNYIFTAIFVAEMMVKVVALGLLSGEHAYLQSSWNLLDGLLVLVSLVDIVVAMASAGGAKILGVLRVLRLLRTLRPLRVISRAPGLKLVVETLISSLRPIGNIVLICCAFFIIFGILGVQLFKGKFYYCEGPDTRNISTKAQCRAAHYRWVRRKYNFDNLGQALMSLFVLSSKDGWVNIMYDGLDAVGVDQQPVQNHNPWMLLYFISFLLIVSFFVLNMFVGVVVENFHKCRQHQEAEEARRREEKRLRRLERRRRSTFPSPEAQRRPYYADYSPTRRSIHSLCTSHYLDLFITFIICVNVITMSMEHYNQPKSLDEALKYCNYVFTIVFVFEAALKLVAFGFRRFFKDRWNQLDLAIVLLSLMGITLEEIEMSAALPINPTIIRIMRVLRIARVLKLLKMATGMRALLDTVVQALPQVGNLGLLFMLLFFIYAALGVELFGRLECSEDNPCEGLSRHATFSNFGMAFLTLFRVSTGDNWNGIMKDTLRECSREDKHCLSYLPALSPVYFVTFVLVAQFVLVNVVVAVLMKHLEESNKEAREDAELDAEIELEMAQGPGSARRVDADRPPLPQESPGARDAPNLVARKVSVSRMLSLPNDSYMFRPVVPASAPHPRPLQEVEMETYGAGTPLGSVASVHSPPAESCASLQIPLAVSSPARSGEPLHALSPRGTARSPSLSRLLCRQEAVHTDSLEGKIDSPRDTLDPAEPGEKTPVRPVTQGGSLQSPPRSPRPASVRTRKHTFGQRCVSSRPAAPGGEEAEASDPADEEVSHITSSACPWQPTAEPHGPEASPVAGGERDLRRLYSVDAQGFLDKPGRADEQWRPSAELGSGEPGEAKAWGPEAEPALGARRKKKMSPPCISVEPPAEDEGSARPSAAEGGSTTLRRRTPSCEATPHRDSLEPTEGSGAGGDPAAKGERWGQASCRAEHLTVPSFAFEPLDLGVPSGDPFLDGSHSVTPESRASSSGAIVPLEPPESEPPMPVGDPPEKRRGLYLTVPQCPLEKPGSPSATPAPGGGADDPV

[14] = target: Hexokinase (Trypanosoma brucei, UniProt Q38C41); assay: Confirmation assay for inhibitors of Trypanosoma brucei hexokinase 1-Analogue-first series. [Related pubchem assays (depositor defined):AID1430, AID1632, AID2516, AID2560, AID2579, AID2600, AID449725, AID492951]; assay type: functional
Sequence of Hexokinase (Q38C41 whole entry): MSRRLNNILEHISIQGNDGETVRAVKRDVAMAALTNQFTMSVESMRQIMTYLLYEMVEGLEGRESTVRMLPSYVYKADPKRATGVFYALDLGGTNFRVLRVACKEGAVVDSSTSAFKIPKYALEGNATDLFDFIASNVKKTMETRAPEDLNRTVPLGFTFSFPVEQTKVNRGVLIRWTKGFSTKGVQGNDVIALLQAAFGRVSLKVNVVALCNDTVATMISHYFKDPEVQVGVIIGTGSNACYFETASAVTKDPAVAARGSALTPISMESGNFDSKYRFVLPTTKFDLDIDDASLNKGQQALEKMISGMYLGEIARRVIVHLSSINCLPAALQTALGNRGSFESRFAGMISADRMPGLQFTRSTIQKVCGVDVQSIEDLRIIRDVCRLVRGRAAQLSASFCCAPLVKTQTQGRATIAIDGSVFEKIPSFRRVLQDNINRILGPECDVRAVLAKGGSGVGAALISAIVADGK

In the case of `CCOC(=O)c1nnn(-c2nonc2N)c1CNc1ccc(C)c(Br)c1`, the IC50 [1] is reported as > 50 µM (inactive).

In the case of `O=C(/C=C/c1c(F)cccc1Cl)c1ccc(O)cc1`, the AC50 [2] is reported as 6.85 µM (active), the IC50 [3] is reported as 5.74 µM (active) and the IC50 [4] is reported as 23.6 µM (active). For the same molecule, the CC50 [5] was 19.9 µM (active).

For `Clc1c(Cl)c(Cl)c2[nH]nnc2c1Cl`, the EC50 [6] was 2.24 µM (active), the IC50 [7] was 13.9 µM (active) and the IC50 [8] was > 20 µM (inactive). The EC50 [9] was 3.2 µM (active), the IC50 [10] was 7.94 µM (active) and the IC50 [11] was > 20 µM (inactive). For the same molecule, the AC50 [12] was 5.99 µM (active).

With `CC(Oc1ccccc1)C(=O)Nc1nnc(-c2ccc(F)c(F)c2)o1` (centres undefined) the EC50 [13] was 10 µM (active).

With `COc1ccc(Nc2cc(Cl)ccc2C(=O)O)cc1` the IC50 [14] was > 25 µM (inactive).
